Legend:
[1] = CCC extraction with DME of clarified fermentation broth from Clostridium acetobutylicum, GC and DNS assay; format: physicochemical
Experimental: This example describes three different runs of the CCC with fermentation broth from Clostridium acetobutylicum. […] The fermentation was intentionally interrupted prior to completion.
The extraction column operated at room temperature (˜25° C.) throughout the column. Periodic extract and raffinate samples were taken and analyzed for the constituents in the extract and raffinate discharges.
This example describes three different runs. In all cases, the mass of solvent to the mass of feed ratio (S/F) was 0.9. In all example the fermentation broth was first centrifuged to removal all cellular matter. Thus, the feed solution was clarified. In the case of the first run, the following components were measured via gas chromatograph (GC) analysis using external standard calibration. The external standard was run prior to analyzing the samples to provide individual calibration between peak area and the respective constituent under measure. […] Acetate was the conjugate base of acetic acid. Butyrate was the conjugate base of butyric acid. All components were quantified in the extract and raffinate. Since the extract and raffinate are mostly water and DME dissolves in water to approximately 20 wt. %, the samples were allowed to degas over a 24 hour period.
During the run, samples were taken of the extract and raffinate. In the case of the extract, the bulk DME was removed by reduction of pressure and addition of heat to flash the DME from the water and other solution constituents.
Extract and raffinate samples were collected at periodic intervals during the CCC testing. […] Glucose was measured via a DNS (3,5-dinitrosalicylic acid) assay.
In cases where the extract formed a two phase solution, the extract samples were diluted with distilled water to create a single phase and homogenous sample prior to GC. The dilution factor was then used to correct the GC measurements for concentrations prior to dilution.

[2] = Distribution coefficients of ABE mixtures between DME and aqueous phase in agitated pressure vessel, HPLC; format: physicochemical
Experimental: The compositions of the aqueous mixtures were based on concentrations typically produced in a cellulosic fermentation.
Mixtures were charged to a pressure vessel and agitated to provide adequate contacting between the aqueous and solvent (DME) phases. Heat tape was used to control the temperature of the liquid that was measured by thermocouples. Pressure and temperature measurements were taken every five minutes. After temperature and pressure stabilization agitation was ceased and the liquid phases were allowed to fully settle.
A mass balance was also performed on each component of the ABE and BE mixtures to determine a degree of accuracy of the results.

[3] = Run 3, Extract Bot, time 31 min
[4] = Run 3, Extract Bot, time 37 min
[5] = Run 3, Extract Top, time 31 min
[6] = Run 3, Extract Top, time 37 min

concentration in sample [1, 3] [µg/mL] | concentration in sample [1, 4] [µg/mL] | concentration in sample [1, 5] [µg/mL] | concentration in sample [1, 6] [µg/mL] | concentration in sample ([1]; Run 3, Extract, time 22 min) [µg/mL] | concentration in sample ([1]; Run 3, Extract, time 27 min) [µg/mL] | concentration in sample ([1]; Run 3, Extract, time 43 min) [µg/mL] | concentration in sample ([1]; Run 3, Extract, time 70 min) [µg/mL] | concentration in sample ([1]; Run 3, Extract, time 74 min) [µg/mL] | concentration in sample ([1]; Run 3, Extract, time 78 min) [µg/mL] | concentration in sample ([1]; Run 3, Extract, time 82 min) [µg/mL] | concentration in sample ([1]; Run 3, Feed, time 0 min) [µg/mL] | concentration in sample ([1]; Run 3, Raffinate, time 22 min) [µg/mL] | concentration in sample ([1]; Run 3, Raffinate, time 27 min) [µg/mL] | concentration in sample ([1]; Run 3, Raffinate, time 31 min) [µg/mL] | concentration in sample ([1]; Run 3, Raffinate, time 37 min) [µg/mL] | concentration in sample ([1]; Run 3, Raffinate, time 43 min) [µg/mL] | concentration in sample ([1]; Run 3, Raffinate, time 70 min) [µg/mL] | concentration in sample ([1]; Run 3, Raffinate, time 74 min) [µg/mL] | concentration in sample ([1]; Run 3, Raffinate, time 78 min) [µg/mL] | Compound | also measured
1640 | 1880 | 910 | 1020 | 960 | 1000 | 1830 | 1620 | 1460 | 1600 | 1650 | 330 | 70 | 0 | 0 | 0 | 0 | 0 | 0 | 60 | CC(=O)C(C)O (stereo not shown) [Acetoin] | concentration in sample ([1]; Run 3, Raffinate, time 82 min): 0 µg/mL
1570 | 1240 | 22090 | 22520 | 3520 | 9290 | 2210 | 1710 | 1380 | 3010 | 1880 | 1710 | 50780 | 19520 | 880 | 880 | 880 | 950 | 970 | 870 | CCCC(=O)O [butyrate] | extraction into DME ([1]; Run 1, pH greater than 5.5): About half; concentration in sample ([1]; Run 3, Raffinate, time 82 min): 930 µg/mL
4740 | 5780 | 0 | 0 | 1460 | 1440 | 6200 | 3940 | 3870 | 4810 | 4950 | 48470 | 1390 | 950 | 47660 | 41230 | 48870 | 42100 | 44360 | 48180 | sugar | extraction into DME ([1]; Run 2): a significant portion of the sugar was not extracted; concentration in sample ([1]; Run 3, Raffinate, time 82 min): 43140 µg/mL
– | – | – | – | – | – | – | – | – | – | – | – | – | – | – | – | – | – | – | – | O [Water, water] | DC ([2]; test ABE1, […] C., 104 psig): 0.15; DC ([2]; test ABE2, 38.3 ° C., 102 psig): 0.14; DC ([2]; test ABE3, 38.3 ° C., 103 psig): 0.13; DC ([2]; test ABE4, 38.0 ° C., 103 psig): 0.14; DC ([2]; test B1, […] C., 78 psig): 0.15; DC ([2]; test B2, 28.2 ° C., 83 psig): 0.11; DC ([2]; test B3, […] C., 86 psig): 0.11; DC ([2]; test BE1, 30.1 ° C., 85 psig): 0.13; DC ([2]; test BE2, 38.9 ° C., 107 psig): 0.13; DC ([2]; test BE3, 37.6 ° C., 103 psig): 0.12; DC ([2]; test BE3, 38.4 ° C., 106 psig): 0.12
